{
  "source": "paper PMC9147958",
  "about": "“Formulation and Evaluation of SNEDDS Loaded with Original Lipophenol for the Oral Route to Prevent Dry AMD and Stragardt’s Disease” (Pharmaceutics, 2022)",
  "key": {"ddY mice": {"system": "ddY mice", "settings": "cited from earlier work"}, "[1]": {"parameters": "method as in PMID 27151507", "settings": "administered dose of 25 mg/kg; cited from earlier work"}, "[2]": {"experiment": "Solubility of IP-DHA in PBS, SGF and ISF without enzymes", "type": "physicochemical", "settings": "for solubility: thermodynamic from solid, n = 3", "experimental": "Solubility was evaluated in PBS (pH 7.4), SGF, and ISF (Table 1) without enzymes (pepsin and pancreatin). An excess of IP-DHA was added for each medium type, followed by mixing using a vortex mixer (Vortex Génie 2) and equilibration at room temperature. Next, the mixtures were centrifuged at 3000 rpm (Sigma centrifuge 2K15) for 15 min. The supernatant from each sample was diluted with methanol. The concentration of IP-DHA in each sample was determined using the µHPLC/MS-MS analysis, as described in Section 2.2.3."}, "Log P of IP-DHA": {"experiment": "Log P of IP-DHA", "type": "physicochemical"}, "Caco-2 permeability": {"experiment": "Caco-2 permeability", "type": "in vitro ADME", "settings": "human, Caco-2, pH 6.5/7.4, 10 μM", "experimental": "Caco-2 cells are human intestinal epithelial cells that are derived from a colorectal adenocarcinoma. Cells were seeded at 1 × 10^5 cells/cm^2 in 96-well Multiscreen^TM plates (Millipore). This assay was performed in either the apical-to-basolateral (A–B) or B–A direction. IP-DHA was prepared at 10 μM in HBSS-MES (pH 6.5) or HBSS-HEPES (pH 7.4), with a final DMSO concentration of 1%. The working solution was then centrifuged, and the supernatant was added to the donor side. The assay plate was incubated at 37 °C with gentle shaking for 60 min or 40 min for the A–B or B–A assays, respectively. Samples were aliquoted from the donor side at time zero and from the end point, and from the receiver side at the end point. Samples were analyzed via HPLC-MS/MS, as described in Section 2.2.3.\nThe apparent permeability coefficient (Papp) in cm/s of IP-DHA was calculated as follows: Papp=VR×CRend/Δt×1/A×CDmind−CRmind where VR is the volume of the receiver chamber. CR(end) is the concentration of IP-DHA in the receiver chamber at the end time point, Δt is the incubation time, A is the surface area of the cell monolayer, and CD(mid) is the calculated mid-point concentration of the test compound on the donor side, which is the mean value of the donor concentration at time 0 min and the donor concentration at the end time point. […]"}, "[3]": {"experiment": "Stability on human microsomes", "type": "in vitro ADME", "parameters": "dose or concentration left out as unconfirmed", "settings": "pooled liver microsomes, pH 7.4, 37 °C, NADPH-generating system, read-out: Stability on human microsomes T1/2", "experimental": "The metabolic stability of IP-DHA on human microsomes (microsomes S9, cryopreserved hepatocytes, recombinant CYP, and recombinant UGT) has been evaluated and expressed as percentage of IP-DHA remaining. IP-DHA was pre-incubated with pooled liver microsomes in phosphate buffer (pH 7.4) at 10 mM for 5 min in a 37 °C shaking water bath (IKA® RH basic KT/C). The reaction was initiated using the NADPH-generating system and incubated for 0, 15, 30, 45, and 60 min. The reaction was stopped by transferring the incubation mixture to acetonitrile/methanol (1:3 v/v ratio). Samples were then mixed and centrifuged at 3000 rpm (Sigma centrifuge 2K15) for 20 min to precipitate the protein, and supernatants were collected. IP-DHA concentration was determined using µHPLC-MS/MS analysis, as described in Section 2.2.3. The half-life (T1/2) was estimated from the slope of the initial linear range of the logarithmic curve of the compound remaining (%) vs. time, assuming first-order kinetics."}, "[4]": {"experiment": "Solubility of IP-DHA in SNEDDS excipients", "type": "physicochemical"}, "[5]": {"experiment": "IP-DHA stability and solubility in gastric- and intestinal-simulated fluids", "type": "in vitro ADME", "parameters": "half-life: dose or concentration left out as unconfirmed", "experimental": "The chemical stability of free IP-DHA and IP-DHA loaded in SNEDDS at 30 mg/mL was evaluated in a gastric and an intestinal environment (Table 1). A total of 150 µL of free IP-DHA (solubilized in MeOH) or SNEDDS-IP-DHA loaded at 30 mg/mL were placed in 20 mL of freshly prepared SGF or ISF under magnetic stirring at 150 rpm in a water bath at 37 °C. Samples were collected at 0, 30, 60, and 90 min for the stability analysis in SGF, or 0, 20, 40, 60, 80, 100, and 120 min for the stability analysis in ISF. A total of 500 µL of the medium was recovered and diluted with 500 µL of MeOH to stop the enzymatic degradation reaction. The samples were centrifuged (Sigma centrifuge 2K15) for 10 min at 15,000 rpm. The supernatant was removed and IP-DHA was quantified as described in Section 2.3.5."}, "ABCA4KO mice [6]": {"system": "ABCA4KO mice", "experiment": "Acute light-induced retinal degeneration, electroretinography", "type": "in vivo", "settings": "100 mg/kg oral, 60 min before 20,000 Lux white light for 90 min, ERG 5 days later", "experimental": "(§1) Mice between 8 and 16 weeks of age (both sexes), were weighed to adjust the quantity of administered compound for a dosage at 100, 50, or 17 mg/kg. Mice were orally fed with a 22-gauge needle containing SNEDDS or soybean oil as a control vehicle, IP-DHA solubilized in soybean oil (20 mg/mL), and SNEDDS-IP-DHA (30 mg/mL).\n(§2) After the mice were dark-adapted (DA) for 24 h, their pupils were dilated with 0.5% tropicamide. The mice were force-fed in the dark 1 h before light exposure. Mice were exposed to constant light (two cool white fluorescent lamps, OSRAM of 26 watts, 1800 lm, a maximum photopic efficiency of ~470 nm, light intensity averaged to 24 mW/cm^2, corresponding to ≈20.000 Lux) for 1.50 h in a white plastic bucket with a fan. Mice were kept in the dark for 5 days before we performed the final retinal evaluations. Throughout the experiment, the ambient temperature was 22 °C, which was identical to that of the breeding box, to avoid an increase in body temperature, which could further damage the retina.\nAll electrophysiological examinations were conducted using the Visiosystem (SIEM, France). Animals were prepared and anesthetized, and electroretinogram recording (binocular full-field ERG) was performed with cotton electrodes, as previously described."}, "ABCA4KO mice [7]": {"system": "ABCA4KO mice", "experiment": "Acute light-induced retinal degeneration, histological analysis", "type": "in vivo", "settings": "100 mg/kg oral, acute white light; dark-adapted mice 2.2", "experimental": "as §1, §2\nAll animals were killed via cervical dislocation. The eyes were rapidly enucleated and fixed in 4% paraformaldehyde for 24 h at 4 °C. Eyecups were embedded in paraffin and cut into 5 μm sagittal sections. […] The thickness of the inner nuclear layer (INL) and the outer nuclear layer (ONL) was measured and expressed in arbitrary units using ImageJ software. […]"}, "[8]": {"system": "ABCA4KO (−/−) mouse model", "parameters": "method as in PMID 32641711", "settings": "intravenous route, cited from earlier work"}, "retinal cells": {"system": "retinal cells", "parameters": "method as in PMID 27072643", "settings": "in vitro; cited from earlier work"}, "rats": {"system": "rats", "settings": "25 mg/kg/day oral with corn oil, 30 days, 1.5 h/day (1500 Lux); cited from earlier work"}},
  "note": "Where two headings read alike, the source gives them in different places.",
  "data": [
    {"smiles": "CC(=O)N1CCN(c2ccc(N)c(-n3ccnc3)c2)CC1", "note": "[NSP-116]", "values": [
      {"measurement": "Photoreceptor protection", "setting": "ddY mice; suspended in water with 0.5% CMC, 30 mg/kg oral 30 min before white light 8000 Lux for 3 h", "value": "effective in protecting photoreceptors"},
      {"measurement": "Cmax in plasma", "setting": "[1]", "value": 7000, "unit": "ng/mL"}
    ]},
    {"smiles": "CC/C=C\\C/C=C\\C/C=C\\C/C=C\\C/C=C\\C/C=C\\CCC(=O)Oc1cc(O)cc(OC(C)C)c1", "note": "[IP-DHA, phloroglucinol-isopropyl-DHA]", "values": [
      {"measurement": "solubility", "setting": "[2]; PBS, pH 7.4, aqueous buffer, room temperature, read-out: Solubility in PBS, pH 7.4", "value": "0.0115 ± 0.00153", "unit": "mg/mL"},
      {"measurement": "BCS classification", "setting": "[2]; from poor solubility and poor Caco-2 permeability", "value": "BCS Class IV"},
      {"measurement": "solubility", "setting": "[2]; pH 1.5, simulated gastric fluid, free IP-DHA, SGF without pepsin, read-out: Solubility in SGF", "value": "0.00739 ± 0.00026", "unit": "mg/mL"},
      {"measurement": "solubility", "setting": "[2]; pH 7.4, fassgf or other biorelevant, free IP-DHA, ISF without pancreatin, read-out: Solubility in ISF", "value": "0.0102 ± 0.00012", "unit": "mg/mL"},
      {"measurement": "logP", "setting": "Log P of IP-DHA", "value": "> 5"},
      {"measurement": "Papp B→A at 40 min, 10 μM", "setting": "Caco-2 permeability; 40 min", "value": "0.7 ± 0.05", "unit": "×10⁻⁶ cm/s"},
      {"measurement": "Papp A→B at 60 min, 10 μM", "setting": "Caco-2 permeability; 60 min", "value": "1 ± 0.14", "unit": "×10⁻⁶ cm/s"},
      {"measurement": "half-life", "setting": "[3]", "value": 10, "unit": "min"},
      {"measurement": "solubility", "setting": "[4]; Labrasol, surfactant, read-out: Solubility of IP-DHA in Labrasol", "value": "46 ± 2.15", "unit": "mg/mL"},
      {"measurement": "solubility", "setting": "[4]; Phosal 53 MCT, oil or lipid, oil phase, read-out: Solubility of IP-DHA in Phosal 53 MCT", "value": "25.5 ± 3.27", "unit": "mg/mL"},
      {"measurement": "solubility", "setting": "[4]; Transcutol HP, organic solvent or mixture, co-surfactant, read-out: Solubility of IP-DHA in Transcutol HP", "value": "45 ± 2.16", "unit": "mg/mL"},
      {"measurement": "half-life", "setting": "[5]; ISF with pancreatin and bile salts, pH 7.4, 37 °C, read-out: T1/2 of IP-DHA in intestinal environment (ISF)", "value": 11, "unit": "min"},
      {"measurement": "Stability of IP-DHA in gastric medium (SGF)", "setting": "[5]; SGF with pepsin, pH 1.5, 37 °C, up to 90 min", "value": "remained stable"},
      {"measurement": "a-wave, % of photoreceptor activity remaining vs dark-adapted mice", "setting": "ABCA4KO mice [6]", "value": 42, "unit": "%"},
      {"measurement": "b-wave, % of photoreceptor activity remaining vs dark-adapted mice", "setting": "ABCA4KO mice [6]", "value": 39, "unit": "%"},
      {"measurement": "INL/ONL ratio of thickness", "setting": "ABCA4KO mice [7]", "value": 0.7},
      {"measurement": "Protection of photoreceptors", "setting": "[8]; IP-DHA associated with BSA at 30 mg/kg", "value": "80–85%"},
      {"measurement": "Effect on the retinoid visual cycle", "setting": "[8]", "value": "did not affect the retinoid visual cycle"},
      {"measurement": "Toxicity on retinal cells", "setting": "retinal cells", "value": "absence of the toxicity"}
    ]},
    {"smiles": "CC1=C(/C=C/C(C)=C/C=C/C(C)=C/C=C/C=C(C)/C=C/C=C(C)/C=C/C2=C(C)C(=O)[C@@H](O)CC2(C)C)C(C)(C)C[C@H](O)C1=O", "note": "[Astaxantin]", "values": [
      {"measurement": "Photoreceptor protection", "setting": "ddY mice; dissolved in olive oil, 100 mg/kg oral, white light 3 h at 8000 Lux", "value": "partially preserve photoreceptors"}
    ]},
    {"smiles": "CC1=C[C@H](O)CC(C)(C)[C@H]1/C=C/C(C)=C/C=C/C(C)=C/C=C/C=C(C)/C=C/C=C(C)/C=C/C1=C(C)C[C@@H](O)CC1(C)C", "note": "[lutein]", "values": [
      {"measurement": "Photoreceptor protection", "setting": "rats", "value": "demonstrated its efficacy for protecting photoreceptors"}
    ]}
  ]
}
